Assay results as given in patent US20120294859A1, “CANCER STEM CELL MARKERS AND USES THEREOF” (GLYCOTOPE GMBH, priority 2010, published 2012).

Legend:
[1] = system: MDA231 breast adenocarcinoma cells; test: Flow cytometry of CD44/CD176 expression after 4-OHT treatment; type: cell-based, human
Method: (§1) Cell suspensions of cell lines were prepared at 1×10^6 cells/100 μl. Cells were washed twice with PBS containing 2% BSA and incubated with primary antibodies at appropriate dilutions at 4° C. for 20 min, followed by anti-IgG-Cy3 (γ chain-specific) and anti-IgM-FITC (μ chain-specific) at appropriate concentrations at 4° C. for 20 min. Flow cytometry was performed with a FACScan (BD Biosciences, Franklin Lakes, N.J., USA). Collected data from 10,000 cells and WinMDI software were used in the analysis of FCS […]. For 4-hydroxytamoxifen treatment, MDA231, MDA435 and MCF-7 breast adenocarcinoma cell lines were exposed to 4-OHT (#H6278, Sigma) at a final concentration of 20 nM for 24 h. Then flow cytometry analysis was performed as described above.

[2] = system: MDA435 breast adenocarcinoma cells; test: as above; type: cell-based, human; conditions: for change in percentage of CD44^+/CD176^+ cells after treatment: MDA435, 24 h, 20 nM
Method: as §1

[3] = system: MCF-7 breast adenocarcinoma cells; test: as above; type: cell-based, human
Method: as §1

[4] = system: MDA-MB-231 breast adenocarcinoma cells; test: Flow cytometry of CD44/CD173/CD174 expression after 4-OHT treatment; type: cell-based; conditions: MDA231, 20 nM for 24 h, P<0.05
Method: (§2) Cell suspensions from established cell lines were prepared at a density of 1×10^6 cells/100 μl. They were washed twice with phosphate buffered saline (PBS) containing 2% BSA and incubated with primary antibodies at 4° for 20 min, followed by anti IgG-Cy3 (γ chain-specific) and anti IgM-FITC (μ chain-specific) in appropriate concentrations at 4° for 20 min. Flow cytometry was performed on a FACScan (BD Biosciences, Franklin Lakes, N.J., USA). Collected data from 10,000 cells and WinMDI software were used for the analysis of FACS […]. For 4-hydroxytamoxifen treatment, MDA-MB-231, MDA-MB-435 and MCF-7 breast adenocarcinoma cell lines were exposed to 4-OHT (#H6278, Sigma) at a final concentration of 20 nM for 24 h. Then flow cytometry analysis was performed as described above.

[5] = system: MDA-MB-435 breast adenocarcinoma cells; test: as above; type: cell-based; conditions: MDA-MB-435, 20 nM for 24 h, P>0.05
Method: as §2

[6] = system: MCF-7 breast adenocarcinoma cells; test: as above; type: cell-based; conditions: MCF-7, 20 nM for 24 h, P>0.05
Method: as §2

[7] = MDA231, 4-OHT 20 nM for 24 h, percent of the positive cells
[8] = MDA435, 4-OHT 20 nM for 24 h, percent of the positive cells
[9] = MCF-7, 4-OHT 20 nM for 24 h, percent of the positive cells

SMILES: CC/C(=C(\c1ccc(O)cc1)c1ccc(OCCN(C)C)cc1)c1ccccc1 [4-OHT, 4-hydroxytamoxifen]
- CD44^+/C176^+ cells [1, 7]: ~2%
- CD44^+/CD176^− cells [1, 7]: ~1%
- CD44^−/CD176^+ cells [1, 7]: ~13%
- CD44^−/CD176^− cells [1, 7]: >60%
- change in number of CD44^+/CD176^+ co-expressing cells after treatment ([1]; MDA231, 24 h, 20 nM): no significantly increased number
- CD44^+/C176^+ cells [2, 8]: ~12%
- CD44^+/CD176^− cells [2, 8]: ~50%
- CD44^−/CD176^+ cells [2, 8]: ~7%
- CD44^−/CD176^− cells [2, 8]: ~31%
- change in percentage of CD44^+/CD176^+ cells after treatment [2]: increased
- change in percentage of CD44^+/CD176^+ cells after treatment ([2]; listed as tamoxifen): enhanced
- CD44^+/C176^+ cells [3, 9]: ~8%
- CD44^+/CD176^− cells [3, 9]: ~20%
- CD44^−/CD176^+ cells [3, 9]: ~8%
- CD44^−/CD176^− cells [3, 9]: >60%
- change in number of CD44^+/CD176^+ co-expressing cells after treatment ([3]; MCF-7, 24 h, 20 nM): no significantly increased number
- change in percentage of CD44^+CD173^+ cells after treatment [4]: increased
- change in percentage of CD44^+CD174^+ cells after treatment [4]: increased
- change in percentage of CD44^+CD173^+ cells after treatment [5]: not
- change in percentage of CD44^+CD174^+ cells after treatment [5]: not
- change in percentage of CD44^+CD173^+ cells after treatment [6]: not
- change in percentage of CD44^+CD174^+ cells after treatment [6]: not
